In data set [1] the test system is Vesicular stomatitis virus. Put plainly: Antiviral activity against vesicular stomatitis virus. Format: functional, organism-based.
For data set [2], the system named is Vaccinia virus. Put plainly: Antiviral activity against vaccinia virus. Format: functional, organism-based. The note with it: Orthopoxvirus vaccinia.
Data set [3] has as its system Reovirus sp. The experiment in a line: Antiviral activity against Reovirus. Format: functional, organism-based.
Data set [4] deals with Human immunodeficiency virus 1. Put plainly: Antiviral activity against HIV1. It counts as functional, organism-based.
The nature of data set [5]: Cytotoxicity against human MT4 cells after 96 hrs by MTT method. It counts as cell-based. (In general: Tetrazolium dyes change colour on reduction, which living cells bring about.)
Data set [6] concerns Bovine viral diarrhea virus 1. The experiment in a line: Antiviral activity against BVDV NADL in MDBK cells assessed as protection from virus-induced cytopathogenicity by MTT method. It counts as functional, organism-based. The note with it: Bovine viral diarrhea virus isolates and strains.
The test system of data set [7] is Yellow fever virus. The experiment in a line: Antiviral activity against YFV in BHK cells assessed as protection from virus-induced cytopathogenicity by MTT method. It counts as functional, organism-based. A general note: Protection from cytopathic effect is a common read-out in antiviral testing.
Data set [8] concerns Respiratory syncytial virus. Put plainly: Antiviral activity against RSV A2 in VERO76 cells assessed as reduction of plaque number by MTT method. It counts as functional, organism-based. The note with it: human respiratory syncytial virus, A2, Vero 76.
Data set [9] deals with Poliovirus 1. Put plainly: Antiviral activity against Human poliovirus 1 Sabin. It counts as functional.

Calls of active or inactive are those of the source. The rule behind the calls is not given here.

For `CCCOc1ccc2c(C)cc(=O)oc2c1CN1CCN(c2ccc(C(C)=O)cc2)CC1`, the result in data set [1], in [2], in data set [3], in data set [4] and in data set [9] was inactive. Also, the CC50 at 96 h in [5] was found to be 25 µM. In addition, the EC50 in [6] is 8 µM; in [7] it was over 100 µM; in data set [8], over 100 µM.
As for `CC(=O)Oc1ccc2c(C)cc(=O)oc2c1Cc1c(C)[nH]c2ccccc12`, the outcome in [1], in data set [2], in data set [3], in data set [4] and in data set [9] was inactive. The same compound had a CC50 at 96 h in [5] of 41 µM. Also, the EC50 in data set [6] was over 100 µM; in data set [7] it was over 100 µM; in [8], 25 µM.
For the compound `CCC(=O)Oc1ccc2ccc(=O)oc2c1Cc1c[nH]c2ccccc12`, the result in data set [1], in data set [2], in data set [3], in [4] and in data set [9] was inactive. In [5], the CC50 at 96 h came out at 65 µM. The EC50 in data set [6] is at least 55 µM; in [7], over 52 µM; in data set [8] it was over 54 µM.
`O=c1ccc2ccc(O)c(CN3CCc4ccccc4C3)c2o1`: the outcome in data set [1], in data set [2], in [3], in data set [4] and in data set [9] was inactive. This compound returned a CC50 at 96 h in data set [5] of over 100 µM. Also, the EC50 in data set [6], in [7] and in [8] was over 100 µM each time.
Turning to `CCC(=O)Oc1[nH]c2ccccc2c1Cc1c(OC(C)=O)ccc2ccc(=O)oc12`, the result in data set [1], in data set [2], in data set [3], in data set [4] and in [9] was inactive. This compound also had a half-maximal cytotoxic concentration (CC50) at 96 h in [5] of 67 µM. In addition, the results for the EC50 in data set [6], in [7] and in data set [8] were over 64 µM, over 72 µM and 60 µM, respectively.
Turning to `COc1ccc2c(=O)c(Cc3c(O)ccc4c(C)cc(=O)oc34)c(N3CCCC3)oc2c1`, the result in [1], in data set [2], in data set [3], in data set [4] and in [9] was inactive. This compound yielded a CC50 at 96 h in data set [5] of over 100 µM. Further, the 50% effective concentration (EC50) in data set [6], in data set [7] and in data set [8] was over 100 µM in each case.
Turning to `O=c1ccc2ccc(O)c(CN3CCN(C/C=C/c4ccccc4)CC3)c2o1`, the result in data set [1], in [2], in data set [3], in [4] and in data set [9] was inactive. The compound also gave a CC50 at 96 h in data set [5] of 5 µM. The EC50 in [6] was over 24 µM; in data set [7] it was over 59 µM; in [8], over 100 µM.
In the case of `COc1ccc2c(=O)c(Cc3c(OC(C)=O)ccc4ccc(=O)oc34)c(N(C)C)oc2c1`, the result in data set [1], in data set [2], in data set [3], in data set [4] and in data set [9] was inactive. The same compound returned a CC50 at 96 h in data set [5] of 26 µM. For the same compound, the EC50 in data set [6] was over 51 µM; in [7] it was over 100 µM; in data set [8], over 25 µM.
As for `CCOC(=O)N1CCN(Cc2c(OC(=O)c3ccccc3)ccc3ccc(=O)oc23)CC1`, the outcome in data set [1], in data set [2], in data set [3], in [4] and in [9] was inactive. Further, the CC50 at 96 h in data set [5] is over 100 µM. Moreover, the values for the EC50 in [6], in data set [7] and in data set [8] were over 100 µM, over 100 µM and 90 µM, respectively.
As to `CC(=O)Oc1ccc2ccc(=O)oc2c1Cc1c(N2CCCCC2)oc2ccc3ccccc3c2c1=O`, the result in data set [1], in data set [2], in data set [3], in data set [4] and in data set [9] was inactive. The compound further came in with a cytotoxic concentration (CC50) at 96 h in data set [5] of over 100 µM. The EC50 in data set [6] stood at 59 µM; in data set [7], 77 µM; in data set [8], 40 µM.
Turning to `COCCN(CCOC)c1oc2cc(OC)ccc2c(=O)c1Cc1c(OC(C)=O)ccc2ccc(=O)oc12`, the result in [1], in data set [2], in [3], in data set [4] and in data set [9] was inactive. Besides, the CC50 at 96 h in data set [5] was over 100 µM. Further, the EC50 was over 100 µM in data set [6], over 100 µM in data set [7] and 7 µM in data set [8].
As for `Cc1cc(=O)oc2c(CN3CCN(C)CC3)c(OC(=O)c3ccccc3)ccc12`, the result in data set [1], in data set [2], in data set [3], in data set [4] and in [9] was inactive. This compound also gave a CC50 at 96 h in data set [5] of over 100 µM. The EC50 in data set [6], in data set [7] and in [8] was over 100 µM throughout.
For the compound `CCN(CC)c1oc2ccc3ccccc3c2c(=O)c1Cc1c(OC(C)=O)ccc2ccc(=O)oc12`, the result in data set [1], in [2], in data set [3], in [4] and in data set [9] was inactive. In addition, the half-maximal cytotoxic concentration (CC50) at 96 h in [5] was over 100 µM. Further, the EC50 in [6], in [7] and in data set [8] was over 100 µM in each case.
In the case of `Cc1cc(=O)oc2c(CN3CCOCC3)c(O)ccc12`, the outcome in data set [1], in data set [2], in data set [3], in [4] and in data set [9] was inactive. The same compound yielded a CC50 at 96 h in data set [5] of over 100 µM. The EC50 in [6], in data set [7] and in [8] was over 100 µM in each case.
For the compound `CCC(=O)Oc1ccc2ccc(=O)oc2c1Cc1c(C)[nH]c2ccccc12`, the outcome in data set [1], in data set [2], in [3], in data set [4] and in data set [9] was inactive. In data set [5], this compound registered a CC50 at 96 h of 80 µM. Moreover, the concentration giving a half-maximal response (EC50) in [6] is over 51 µM; in [7], over 100 µM; in data set [8], over 100 µM.
For `CCCOc1ccc2c(C)cc(=O)oc2c1CN1CCc2ccccc2C1`, the result in data set [1], in data set [2], in data set [3], in [4] and in data set [9] was inactive. In [5], the CC50 at 96 h was over 100 µM. Besides, the figures for the EC50 in data set [6], in [7] and in data set [8] were 20 µM, over 100 µM and over 93 µM, respectively.
With `O=c1cnn([C@@H]2O[C@H](CO)[C@@H](O)[C@H]2O)c(=O)[nH]1` [6-AZAURIDINE], the result in data set [1], in [2], in data set [3], in data set [4] and in data set [9] was inactive. Moreover, the CC50 at 96 h in [5] was 0.2 µM. Further, the EC50 in data set [6] is over 25 µM; in [7], 25 µM; in data set [8], 1 µM.
As to `CCN(CC)c1oc2cc(OC(C)=O)ccc2c(=O)c1Cc1c(OC(C)=O)ccc2c(C)cc(=O)oc12`, the result in data set [1], in data set [2], in data set [3], in data set [4] and in data set [9] was inactive. This compound returned a cytotoxic concentration (CC50) at 96 h in data set [5] of 44 µM. Besides, the results for the EC50 in data set [6], in [7] and in data set [8] were over 100 µM, over 100 µM and 11 µM, respectively.
On to `Cc1cc(=O)oc2c(CN(C)CC(=O)O)c(O)ccc12`, for which the result in data set [1], in data set [2], in data set [3], in data set [4] and in data set [9] was inactive. In addition, the CC50 at 96 h in data set [5] was over 100 µM. Further, the EC50 in data set [6], in [7] and in data set [8] was over 100 µM throughout.
With `CCCOc1ccc2ccc(=O)oc2c1CN1CCc2ccccc2C1`, the result in data set [1], in [2], in [3], in data set [4] and in data set [9] was inactive. For the same compound, in [5], the CC50 at 96 h came out at 11 µM. Also, the EC50 in data set [7] was over 19 µM; in [8] it was over 25 µM.
As for `Cc1cc(=O)oc2c(CN3CCN(C/C=C/c4ccccc4)CC3)c(O)ccc12`, the outcome in data set [1], in data set [2], in data set [3], in data set [4] and in data set [9] was inactive. Moreover, half-maximal cytotoxicity in data set [5] (CC50 at 96 h) was put at 28 µM. The figures for the half-maximal effective concentration (EC50) in data set [6], in data set [7] and in data set [8] were over 18 µM, over 53 µM and over 100 µM, respectively.

One may read the CC50 as the concentration giving 50% cytotoxicity. By EC50 is commonly meant the concentration giving half of the maximal effect.

These data come from ChEMBL document CHEMBL1144007, “Activity of Mannich bases of 7-hydroxycoumarin against Flaviviridae” (Bioorg Med Chem, 2008).
